According to PubChem BioAssay (NCI):
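Five compound concentrations were applied to cells in 96-well plates for 48 hours; endpoints were derived by simple linear interpolation of the resulting dose-response curve. Abbreviation: GI50, concentration required for 50% inhibition of growth. TGI is the concentration that stops growth completely.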

What was measured:
Assay in all cases: NCI anticancer screen, dose series, 48 h
786-0 renal = test system: 786-0 renal
HCT-116 colon = test system: HCT-116 colon
HOP-92 NSCLC = test system: HOP-92 NSCLC
IGROV1 ovarian = test system: IGROV1 ovarian
MALME-3M melanoma = test system: MALME-3M melanoma
OVCAR-8 ovarian = test system: OVCAR-8 ovarian
SF-295 CNS = test system: SF-295 CNS
SR leukemia = test system: SR leukemia
U251 CNS = test system: U251 CNS

SMILES | GI50 (786-0 renal) | TGI (786-0 renal) | GI50 (HCT-116 colon) | TGI (HCT-116 colon) | GI50 (HOP-92 NSCLC) | TGI (HOP-92 NSCLC) | GI50 (IGROV1 ovarian) | TGI (IGROV1 ovarian) | GI50 (MALME-3M melanoma) | TGI (MALME-3M melanoma) | GI50 (OVCAR-8 ovarian) | TGI (OVCAR-8 ovarian) | GI50 (SF-295 CNS) | TGI (SF-295 CNS) | GI50 (SR leukemia) | TGI (SR leukemia) | GI50 (U251 CNS) | TGI (U251 CNS)
CCC[CH2][Sn]1([CH2]CCC)[O]N=Cc2ccccc2[O]1 | 0.608 µM | 1.89 µM | 1.43 µM | 2.73 µM | 1.22 µM | 2.49 µM | 1.03 µM | 2.25 µM | 0.439 µM | 0.978 µM | 0.89 µM | 2.12 µM | 0.93 µM | 2.13 µM | 0.342 µM | 2.75 µM | 0.387 µM | 1.41 µM
CC1(C)CC(=O)C=C(NC(=O)c2ccccc2)C1 |  | > 100 µM |  | > 100 µM |  | > 100 µM |  | > 100 µM |  | > 100 µM |  | > 100 µM |  | > 100 µM |  |  |  | > 100 µM
CC(C)=CCCC1(C)C=Cc2c(ccc3c2[nH]c2cc(O)c(C)cc23)O1 (stereo not drawn) | 4.27 µM | 7.87 µM | 8.79 µM | > 25 µM | 4.22 µM | 10.2 µM |  | > 2.5 µM | 5.2 µM | 11 µM |  | 7.49 µM |  |  | 5.55 µM | 14.7 µM | 4.53 µM | 8.03 µM
C/C(CC(=O)Nc1cc(Cl)c(Cl)cc1Cl)=N\NS(=O)(=O)c1ccc(C)cc1 |  | > 100 µM |  | 59.6 µM |  | 59 µM |  | > 100 µM |  | > 100 µM |  | > 100 µM |  | > 100 µM |  |  |  | > 100 µM
CC1CC(=O)CC[C@@H]1OCc1ccccc1 (stereo partly drawn) |  | > 100 µM |  | > 100 µM |  |  |  | > 100 µM |  | > 100 µM |  | > 100 µM |  | > 100 µM |  |  |  | > 100 µM
COC(=O)C([O][Ge]([CH3])([CH3])[CH3])c1ccccc1 (stereo not drawn) | > 100 µM | > 100 µM | > 100 µM | > 100 µM | > 100 µM | > 100 µM | > 100 µM | > 100 µM | > 100 µM | > 100 µM | > 100 µM | > 100 µM | > 100 µM | > 100 µM |  |  | > 100 µM | > 100 µM
CCOc1c(Cc2ccccc2)c(=O)n2c3ccccc3n3c(=O)n(C)c(=O)c1c23 |  | > 100 µM |  | > 100 µM |  | > 100 µM |  | > 100 µM |  | > 100 µM |  | > 100 µM |  | > 100 µM |  | > 100 µM |  | > 100 µM
COC(=O)C1=C(c2cc(OC)c(OC)c(OC)c2)OC(c2cc(OC)c(OC)c(OC)c2)C1 (stereo not drawn) |  | 70.8 µM |  | 32.9 µM |  | 36.5 µM |  | 46 µM |  | 72.3 µM |  | > 100 µM |  | 51.1 µM |  | 60 µM |  | 44.2 µM
N#CC(N)(C(=O)C(=O)NCCCNC(=O)C(=O)C(N)(C#N)c1ccc(Cl)cc1)c1ccc(Cl)cc1 (stereo not drawn) |  | > 100 µM |  | > 100 µM |  | > 100 µM |  | > 100 µM |  | > 100 µM |  | > 100 µM |  | > 100 µM |  | > 100 µM |  | > 100 µM
